Measured values taken from patent US20250313554A1, “PTPN2 INHIBITORS” (Ness Therapeutics, Inc., priority 2022, published 2025).
pIC50, pKi: −log10 of the molar value. Read-outs that look alike come from different tables or passages of the source.

How the values were obtained:
GST-tagged PTPN2 protein = GST-tagged PTPN2 protein (Homo sapiens (Human), UniProt P17706); assay: Primary assay of PTPN2 enzymatic activity inhibition (DiFMUP fluorescence); format: biochemical; conditions: PTPN2 0.004 ng/μL, DiFUMP substrate 2 μM, 60 min at rt
Protocol: Compound activity was determined using GST-tagged PTPN2 protein (Cat #31592, ActiveMotif) (SEQ ID NO: 1) in an in vitro enzymatic reaction. The enzymatic reaction was carried out in assay buffer (50 mM HEPES Na salt pH 7.2-7.4, 2 mM EDTA, 100 mM NaCl, 52 ng/μL BSA, and 6 mM DTT). The compounds were dispensed on a 384 well Diamond Well Plate (Axigen, Cat #P-384-120SQ-C-S) using the Biomek FX liquid handling system at 100× solutions of compounds in DMSO. 2×PTPN2 (final concentration 0.004 ng/μL) was prepared in 1× Assay buffer and 25 μL of mixture per well was added into Reaction plate (Optiplate, black, Perkin Elmer, Cat #6007270). Add 25 μL of 1× buffer to Ctrl- (Substrate w/o PTPN2) wells followed by centrifugation at 100 g for 1 min. Next step the Compounds were added to Reaction plate using Biomek station via following steps: 3 μl of 100× compounds (in DMSO) were mixed with 27 μL of Assay Buffer, then 5 μL of this mixture was added to Reaction plate with 25 μL of PTPN2 Mix. Plates were centrifuged for 1 min at 100 g and incubated for another 10 min at rt. Finally, 20 μL of 2.5× Substrate (DiFUMP, Invitrogen™ Cat #D6567) mix was added into appropriate wells of Reaction plate to the final concentration of 2 μM, plate was centrifuged at 100 g for 1 min followed by incubation at rt for 60 min, and the Fluorescence Intensity was measured using a Microplate Reader (ClarioStar Plus, excitation 360 nm, emission 450 nm). The % inhibition was then used to calculate the Ki values. The Ki values are shown in Table A, wherein “A” corresponds to Ki<1.0 nm, “B” corresponds to 1.0 nm≤Ki<5.0 nm, “C” corresponds to 5.0 nm≤Ki<10.0 nm, “D” corresponds to 10.0 nm≤Ki<50.0 nm, and “E” corresponds to 50.0 nm≤Ki<100.0 nm, and “F” corresponds to 100.0 nm≤Ki.

[1] = test system: B16F10 mouse melanoma cells; assay: Tumor cells B16F10 cellular growth IFNγ-induced inhibition assay (CellTiter-Glo); format: cell-based; conditions: for pIC50 / IC50: B16-F10, 72 h; for pIC50: 3 days of incubation
Protocol: B16F10 mouse melanoma cells (ATCC Cat #CRL-6475) were seeded at a density of 500 cells per well in a 384-well clear bottom plate (Corning Cat #3712, Corning, N.Y.) in 40 μL total volume of DMEM+10% FBS (PanEco Cat #C420, Russia and Sigma Cat #F4135, St. Louis, MO). Cells were allowed to adhere overnight at 37° C., 5% CO2. On the following day, 250× solutions of compounds in DMSO (Sigma Cat #D2650) were prepared into Cmpnds plate (Diamond Well Plate, Axigen, Cat #P-384-120SQ-C-S) (final concentration of 1×) and DMSO only controls were included. Dilution Plate (Diamond Well Plate (Axigen, Cat #P-384-120SQ-C-S) was prepared by adding 49 μL of culture medium per well: half of the plate with culture medium only, half with culture medium+IFNγ (5 ng/ml). A 1 μL aliquot of 250× compounds (Cmpnds plate) was added to 49 μL of culture medium (Dilution plate), then a 10 μL aliquot of the mixture was transferred to Reaction plate with 40 μL of cells followed by centrifugation at 240 g for 1 min. After 3 days of incubation, 10 μL of CellTiter-Glo (Promega) was added to the cells, plates were centrifuged at 240 g for 1 min, and luminescence signal was measured. For each compound, the percent growth inhibition at every compound dose level was calculated relative to the “DMSO/with IFNγ” control and used to determine the IC50.

[2] = Pharmacokinetic (PK) study in mice, oral bioavailability; format: in vivo, Male CD-1 mice; conditions: 10 mg/kg PO vs 2 mg/kg IV, 10% Ethanol, 30% PEG-400, 60% Phosal-50PG
Protocol: Pharmacokinetic (PK) study in mice: Male CD-1 mice obtained from Charles River GmbH (Sulzfeld, Germany) with body weight ranging between 30 g to 40 g were used in the PK studies. Group of 12 mice were given a 2 mg/kg intravenous bolus (IV) dose of test article as a solution in 20% HP-beta-CD, and another group of 9 mice were given a 10 mg/kg oral (PO) dose of test article as a solution or suspension in [10% ethanol, 30% PEG-400 and 60% Phosal-50PG]. Blood samples (˜200 μL per time point) were collected twice from each animal—from orbital sinus and by cardiopuncture at 0.083, 0.25, 0.5, 1, 2, 4, 8 and 24 hours after IV administration, and at 0.5, 1, 2, 4, 8 and 24 hours after PO administration, 3 mice/time point. Blood samples were collected in tubes with Na-EDTA 0.5 M solution (1:10) and centrifuged for 10 min at 10,000 rpm at 2 to 8° C. to harvest plasma. Plasma samples were stored at −80° C. until LC/MS/MS analysis. Concentration in each plasma sample was determined by a non-validated LC/MS/MS. Data is acquired using multiple reaction monitoring (MRM) with specific transitions monitored for each compound. Pharmacokinetic Analysis: PK parameters were calculated by non-compartmental methods as described in Gibaldi and Perrier (Gibaldi and Perrier, 1982) using Phoenix® WinNonlin® version 6.3 (Certara L.P.). Following PO administration, percent bioavailability (Fabs) was determined by dividing the dose normalized mean area under the plasma concentration-time curve, extrapolated to the last time point (AUClast) obtained following PO dose by the mean dose normalized AUC of the animals dosed by IV injection. All PK parameters are presented as mean±standard deviation (SD). PK studies were conducted in mice for exemplary compounds of Formula (I). The percent bioavailability (Fabs) values determined are listed in Table C for certain compounds, together with the dosage, vehicle and form used in the studies.

[3] = B16F10, no IFNγ, read-out: IC50 no IFNγ
[4] = B16F10, with IFNγ, read-out: IC50 + IFNγ
[5] = B16-F10, B16F10, 100 μM compound, no IFNγ, read-out: % Growth Inhibition at 100 μM no IFNγ
[6] = B16-F10, B16F10, 100 μM compound, with IFNγ, read-out: % Growth Inhibition at 100 μM + IFNγ

Sequence of GST-tagged PTPN2 protein (P17706 whole entry): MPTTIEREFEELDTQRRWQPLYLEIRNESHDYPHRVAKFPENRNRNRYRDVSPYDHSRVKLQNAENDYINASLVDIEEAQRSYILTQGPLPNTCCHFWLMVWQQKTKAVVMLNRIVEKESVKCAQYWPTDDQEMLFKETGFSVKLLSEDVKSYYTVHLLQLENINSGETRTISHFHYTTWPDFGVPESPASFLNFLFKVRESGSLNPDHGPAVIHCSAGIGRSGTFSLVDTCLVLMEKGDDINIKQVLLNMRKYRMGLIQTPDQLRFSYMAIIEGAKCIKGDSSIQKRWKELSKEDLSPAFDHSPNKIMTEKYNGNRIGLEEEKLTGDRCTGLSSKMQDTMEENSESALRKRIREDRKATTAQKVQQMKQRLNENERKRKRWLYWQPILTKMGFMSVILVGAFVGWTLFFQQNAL

| pKi (GST-tagged PTPN2 protein) | pIC50 [1, 3] | pIC50 [1, 4] | Fabs, % ([2]; form Solution) [%] | Fabs, % ([2]; form Suspension) [%] | SMILES | inhibition at 100 µM [1, 5] [%] | inhibition at 100 µM [1, 6] [%] | IC50 ([1]; read-out: IC50 + IFNγ (μM)) [µM] | IC50 ([1]; read-out: IC50 no IFNγ (μM)) [µM] | inhibition at 100 µM ([1]; B16-F10, read-out: % Growth Inhibition at 100 μM + IFNγ) [%] | inhibition at 100 µM ([1]; B16-F10, read-out: % Growth Inhibition at 100 μM no IFNγ) [%] |
| --- | --- | --- | --- | --- | --- | --- | --- | --- | --- | --- | --- |
| > 9.00 | < 4.00 | 4.00 to 4.30 | – | – | Cc1cnc(Nc2cc(O)c(N3CC(=O)NS3(=O)=O)c(F)c2)nc1O [Compound 6, 5-[2-fluoro-6-hydroxy-4-[(4-hydroxy-5-methyl-pyrimidin-2-yl)amino]phenyl]-1,1-dioxo-1,2,5-thiadiazolidin-3-one] | < 10 | 50 to 75 | – | – | – | – |
| 8.30 to 9.00 | < 4.00 | 5.00 to 5.30 | – | 6.1 | O=C1CN(c2c(O)cc(Nc3nccc(O)n3)cc2F)S(=O)(=O)N1 [Compound 7, 5-[2-fluoro-6-hydroxy-4-[(4-hydroxypyrimidin-2-yl)amino]phenyl]-1,1-dioxo-1,2,5-thiadiazolidin-3-one] | 10 to 50 | 75 to 100 | – | – | – | – |
| > 9.00 | < 4.00 | 4.30 to 5.00 | – | – | O=C1CN(c2c(O)cc(Nc3nc(O)c4ccccc4n3)cc2F)S(=O)(=O)N1 [Compound 8, 5-[2-fluoro-6-hydroxy-4-[(4-hydroxyquinazolin-2-yl)amino]phenyl]-1,1-dioxo-1,2,5-thiadiazolidin-3-one] | 10 to 50 | 50 to 75 | – | – | – | – |
| > 9.00 | < 4.00 | 4.30 to 5.00 | – | – | CC(C)Cc1cnc(Nc2cc(O)c(N3CC(=O)NS3(=O)=O)c(F)c2)nc1O [Compound 12, 5-[2-fluoro-6-hydroxy-4-[(4-hydroxy-5-isobutyl-pyrimidin-2-yl)amino]phenyl]-1,1-dioxo-1,2,5-thiadiazolidin-3-one] | 10 to 50 | 50 to 75 | – | – | – | – |

The remaining lines, values behind:

| SMILES | pKi (GST-tagged PTPN2 protein) | pIC50 [1, 3] | pIC50 [1, 4] | Fabs, % ([2]; form Solution) [%] | Fabs, % ([2]; form Suspension) [%] | inhibition at 100 µM [1, 5] [%] | inhibition at 100 µM [1, 6] [%] | IC50 ([1]; read-out: IC50 + IFNγ (μM)) [µM] | IC50 ([1]; read-out: IC50 no IFNγ (μM)) [µM] | inhibition at 100 µM ([1]; B16-F10, read-out: % Growth Inhibition at 100 μM + IFNγ) [%] | inhibition at 100 µM ([1]; B16-F10, read-out: % Growth Inhibition at 100 μM no IFNγ) [%] |
| --- | --- | --- | --- | --- | --- | --- | --- | --- | --- | --- | --- |
| O=C1CN(c2c(O)cc(NC3=NCCCN3)cc2F)S(=O)(=O)N1 [Compound 2, 5-[2-fluoro-6-hydroxy-4-(1,4,5,6-tetrahydropyrimidin-2-ylamino)phenyl]-1,1-dioxo-1,2,5-thiadiazolidin-3-one] | 8.00 to 8.30 | < 4.00 | > 5.30 | – | – | 10 to 50 | 75 to 100 | – | – | – | – |
| CC1CCN=C(Nc2cc(O)c(N3CC(=O)NS3(=O)=O)c(F)c2)N1 (centres unmarked) [Compound 3, 5-[2-fluoro-6-hydroxy-4-[(6-methyl-1,4,5,6-tetrahydropyrimidin-2-yl)amino]phenyl]-1,1-dioxo-1,2,5-thiadiazolidin-3-one] | 7.30 to 8.00 | 4.30 to 5.00 | 5.00 to 5.30 | 12.5 | – | 10 to 50 | 50 to 75 | – | – | – | – |
| Cc1ccnc(Nc2cc(O)c(N3CC(=O)NS3(=O)=O)c(F)c2)n1 [Compound 4, 5-[2-fluoro-6-hydroxy-4-[(4-methylpyrimidin-2-yl)amino]phenyl]-1,1-dioxo-1,2,5-thiadiazolidin-3-one] | ≤ 7.00 | – | – | – | – | – | – | > 100 | > 100 | 10 to 50 | 10 to 50 |
| O=C1CN(c2c(O)cc(Nc3ncc(Cl)cn3)cc2F)S(=O)(=O)N1 [Compound 5, 5-[4-[(5-chloropyrimidin-2-yl)amino]-2-fluoro-6-hydroxy-phenyl]-1,1-dioxo-1,2,5-thiadiazolidin-3-one] | 7.00 to 7.30 | < 4.00 | < 4.00 | – | – | 10 to 50 | 10 to 50 | – | – | – | – |
| COc1cc(O)nc(Nc2cc(O)c(N3CC(=O)NS3(=O)=O)c(F)c2)n1 [Compound 9, 5-[2-fluoro-6-hydroxy-4-[(4-hydroxy-6-methoxy-pyrimidin-2-yl)amino]phenyl]-1,1-dioxo-1,2,5-thiadiazolidin-3-one] | > 9.00 | < 4.00 | 5.00 to 5.30 | 10.4 | – | 10 to 50 | 75 to 100 | – | – | – | – |
| CC(C)Cc1c(O)nc(Nc2cc(O)c(N3CC(=O)NS3(=O)=O)c(F)c2)nc1O [Compound 13, 5-[4-[(4,6-dihydroxy-5-isobutyl-pyrimidin-2-yl)amino]-2-fluoro-6-hydroxy-phenyl]-1,1-dioxo-1,2,5-thiadiazolidin-3-one] | 8.30 to 9.00 | < 4.00 | 4.30 to 5.00 | – | – | 10 to 50 | 50 to 75 | – | – | – | – |
| CCCc1c(C)nc(Nc2cc(O)c(N3CC(=O)NS3(=O)=O)c(F)c2)nc1O [Compound 21, 5-[2-fluoro-6-hydroxy-4-[(4-hydroxy-6-methyl-5-propyl-pyrimidin-2-yl)amino]phenyl]-1,1-dioxo-1,2,5-thiadiazolidin-3-one] | 8.30 to 9.00 | < 4.00 | 4.30 to 5.00 | – | – | 10 to 50 | 50 to 75 | – | – | – | – |
| O=C1CN(c2c(O)cc(Nc3nc(O)c4c(n3)CCCC4)cc2F)S(=O)(=O)N1 [Compound 39, 5-[2-fluoro-6-hydroxy-4-[(4-hydroxy-5,6,7,8-tetrahydroquinazolin-2-yl)amino]phenyl]-1,1-dioxo-1,2,5-thiadiazolidin-3-one] | > 9.00 | < 4.00 | 4.30 to 5.00 | – | – | 10 to 50 | 50 to 75 | – | – | – | – |
| CC(C)Cc1c(O)nc(Nc2cc(O)c(N3CC(=O)NS3(=O)=O)c(F)c2)nc1Cl [Compound 42, 5-[4-[(4-chloro-6-hydroxy-5-isobutyl-pyrimidin-2-yl)amino]-2-fluoro-6-hydroxy-phenyl]-1,1-dioxo-1,2,5-thiadiazolidin-3-one] | > 9.00 | < 4.00 | 4.30 to 5.00 | – | – | 10 to 50 | 75 to 100 | – | – | – | – |
